One may read the TGI as the concentration at which net growth stops. The low end stands for more potent growth arrest, the high end for less potent growth arrest.

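48-hour exposure; five concentrations; linearly interpolated endpoints. TGI marks complete inhibition of growth.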 Some results are limits rather than exact numbers.

Test systems include HL-60(TB) leukemia; SF-295 CNS; COLO 205 colon; TK-10 renal; SF-268 CNS; IGROV1 ovarian; NCI-H460 lung; NCI/ADR-RES ovarian; BT-549 breast.
Assay in all cases: DTP human tumour cell line panel, 48 h

With `C=Cc1c(C)c(OC)cc2c1Oc1ccc(OC)c(C)c1CC2`, the TGI in the experiment with HL-60(TB) leukemia, with SF-295 CNS, with COLO 205 colon, with TK-10 renal, with SF-268 CNS and in the experiment with IGROV1 ovarian was > 100 µM throughout. In addition, the TGI with NCI-H460 lung and with NCI/ADR-RES ovarian was > 100 µM in each case.

For `O=c1oc2ccccc2c2c(=O)c3ccc(OC/C(=N/O)c4ccc(Cl)cc4)cc3oc12`, the total growth inhibition concentration (TGI) was 28.4 µM with HL-60(TB) leukemia; 7.1 µM with SF-295 CNS; 29.1 µM in the experiment on COLO 205 colon; 41.8 µM in the experiment on SF-268 CNS; > 100 µM in the experiment on IGROV1 ovarian; 33 µM with NCI-H460 lung. Besides, the TGI with NCI/ADR-RES ovarian came out at 31.4 µM.

With `COC(=O)C1CCC(=O)N1CN(C(C)=O)c1ccccc1` (stereo not drawn), the TGI in the experiment on HL-60(TB) leukemia, in the experiment on SF-295 CNS, in the experiment with COLO 205 colon, in the experiment on TK-10 renal, in the experiment with SF-268 CNS and with IGROV1 ovarian was > 100 µM in each case. In addition, the TGI in the experiment on NCI-H460 lung and in the experiment with NCI/ADR-RES ovarian was > 100 µM each time.

In the case of `CC1=NN(c2ccccc2)C(=O)/C1=C/c1ccc(O)cc1`, the TGI in the experiment with HL-60(TB) leukemia, in the experiment with SF-295 CNS, in the experiment on COLO 205 colon, with TK-10 renal, in the experiment with SF-268 CNS and with IGROV1 ovarian was > 100 µM each time. The TGI with NCI-H460 lung and in the experiment on NCI/ADR-RES ovarian was > 100 µM throughout.

As for `O=NC1C(Cl)C2CC1C1C(Br)C(Br)CC21` (stereo not drawn), the TGI in the experiment on HL-60(TB) leukemia, in the experiment with SF-295 CNS, with COLO 205 colon, in the experiment with TK-10 renal, in the experiment on SF-268 CNS and in the experiment on IGROV1 ovarian was > 100 µM each time. Moreover, the TGI in the experiment with NCI-H460 lung and in the experiment with NCI/ADR-RES ovarian was > 100 µM each time.

With `CCCC(=O)NC1=C(NCC)C(=O)c2ccccc2C1=O`, the TGI in the experiment with HL-60(TB) leukemia, with SF-295 CNS, with COLO 205 colon, in the experiment on TK-10 renal, with BT-549 breast and in the experiment with SF-268 CNS was > 100 µM in each case. Moreover, the TGI in the experiment on IGROV1 ovarian and with NCI-H460 lung was > 100 µM each time.

As to `CC1(CCC2C=CCC2)CCCNC1=S` (stereo not drawn), the TGI with HL-60(TB) leukemia, in the experiment with SF-295 CNS, in the experiment with TK-10 renal, in the experiment on BT-549 breast, in the experiment with SF-268 CNS and with IGROV1 ovarian was > 10 µM in each case. Moreover, the TGI with NCI-H460 lung is > 10 µM.

On to `CNC(=O)N1CN(c2ccccc2)C2(CCN(CCCC(=O)c3ccc(F)cc3)CC2)C1=O`, for which the TGI in the experiment on HL-60(TB) leukemia is 37.8 µM; in the experiment on SF-295 CNS, 31 µM; in the experiment on COLO 205 colon, 22.3 µM; in the experiment on TK-10 renal, 49.5 µM; in the experiment on SF-268 CNS, > 100 µM; in the experiment on IGROV1 ovarian it was 89.1 µM. The TGI in the experiment on NCI/ADR-RES ovarian worked out at 36.6 µM.

`CC1(C)CS(=O)(=O)CC(C)(C)C(=N/N)/C1=N\N`: the concentration for total growth inhibition (TGI) in the experiment with HL-60(TB) leukemia, in the experiment with SF-295 CNS, in the experiment on COLO 205 colon, in the experiment with TK-10 renal, in the experiment with SF-268 CNS and in the experiment with IGROV1 ovarian was > 100 µM in each case. Besides, the TGI in the experiment on NCI-H460 lung and with NCI/ADR-RES ovarian was > 100 µM throughout.

For the compound `CCOC(=O)c1sc2c(c1OC(=O)c1cccs1)c(=O)n(-c1ccccc1)c(=S)n2-c1ccccc1`, the TGI in the experiment on HL-60(TB) leukemia was 48.4 µM; in the experiment on SF-295 CNS it was > 100 µM; in the experiment on COLO 205 colon, 35.6 µM; in the experiment on TK-10 renal it was > 100 µM; with SF-268 CNS, > 100 µM; with IGROV1 ovarian, 28 µM. Further, the figures for the TGI in the experiment with NCI-H460 lung and in the experiment with NCI/ADR-RES ovarian were 12.4 µM and 31.4 µM, respectively.

For `O=c1oc2ccccc2cc1/C=N/N1C(=S)N(c2ccccc2)C(=Nc2ccccc2)C1=Nc1ccccc1`, the TGI with SF-295 CNS, in the experiment with COLO 205 colon, with TK-10 renal, with BT-549 breast, in the experiment on SF-268 CNS and in the experiment on IGROV1 ovarian was > 100 µM each time. The TGI in the experiment with NCI-H460 lung and in the experiment on NCI/ADR-RES ovarian was > 100 µM throughout.

With `COc1cc(OC)c(OC)cc1/C=N/N=C(\N)NO`, the TGI in the experiment on HL-60(TB) leukemia, with SF-295 CNS, in the experiment on COLO 205 colon, in the experiment on TK-10 renal, in the experiment with SF-268 CNS and in the experiment with IGROV1 ovarian was > 100 µM throughout. For the same compound, the TGI in the experiment on NCI-H460 lung and in the experiment on NCI/ADR-RES ovarian was > 100 µM throughout.

Turning to `N#Cc1c(N)oc(-c2cccc([N+](=O)[O-])c2)c1C#N`, the TGI is 65.1 µM in the experiment with HL-60(TB) leukemia; > 100 µM in the experiment with SF-295 CNS; 44.7 µM in the experiment with COLO 205 colon; 49.7 µM with TK-10 renal; > 100 µM in the experiment with SF-268 CNS; 65.3 µM in the experiment on IGROV1 ovarian. The TGI in the experiment on NCI/ADR-RES ovarian was > 100 µM.

On to `CCC(NC(C)c1ccccc1)C(O)c1ccc(OCc2ccccc2)c(OCc2ccccc2)c1` (stereo not drawn), for which the TGI in the experiment with HL-60(TB) leukemia turned out to be 30.2 µM; in the experiment on SF-295 CNS, 35.4 µM; with COLO 205 colon it was 3.88 µM; with TK-10 renal, 32.4 µM; in the experiment on SF-268 CNS, 36.4 µM; in the experiment with IGROV1 ovarian, 33.9 µM. For the same compound, the figures for the TGI in the experiment on NCI-H460 lung and in the experiment on NCI/ADR-RES ovarian were 32.1 µM and 30.6 µM, respectively.

Take `O=[N+]([O-])/C=C1\COCc2cc3c(cc21)OCO3`: the TGI in the experiment on HL-60(TB) leukemia is 57.4 µM; in the experiment on SF-295 CNS, > 100 µM; in the experiment with COLO 205 colon, 42 µM; in the experiment on TK-10 renal it was 50 µM; in the experiment on SF-268 CNS it was 67 µM; with IGROV1 ovarian it was > 100 µM. Besides, the TGI in the experiment on NCI-H460 lung was 93.8 µM; with NCI/ADR-RES ovarian, 43.4 µM.

`COC(=O)C1=CSC2(S1)C(C(=O)OC)=CSc1c2ssc1=Nc1ccccc1` (stereo not drawn): the TGI in the experiment on SF-295 CNS is 7.09 µM; in the experiment with COLO 205 colon it was 4.37 µM; in the experiment on TK-10 renal, 10.4 µM; in the experiment with BT-549 breast, 22.6 µM; with SF-268 CNS, > 100 µM; in the experiment with IGROV1 ovarian, 4.83 µM. The concentration for total growth inhibition (TGI) is > 100 µM in the experiment on NCI-H460 lung and 3.8 µM in the experiment with NCI/ADR-RES ovarian.

In the case of `Cc1ccccc1N=Nc1ccc(N=Nc2c(O)ccc3ccccc23)c(C)c1`, the TGI in the experiment on SF-295 CNS, in the experiment on COLO 205 colon, with TK-10 renal, with BT-549 breast, with SF-268 CNS and in the experiment with IGROV1 ovarian was > 100 µM each time. Further, the TGI in the experiment with NCI/ADR-RES ovarian was > 100 µM.

On to `COc1ccc(N2C(=O)C3c4[nH]c5ccc(C)cc5c4C4CCC(C)CC4C3C2=O)cc1` (stereo not drawn), for which the TGI in the experiment with SF-295 CNS, in the experiment with COLO 205 colon, in the experiment on TK-10 renal, with BT-549 breast, in the experiment on SF-268 CNS and with IGROV1 ovarian was > 100 µM each time. The concentration for total growth inhibition (TGI) in the experiment on NCI-H460 lung and in the experiment with NCI/ADR-RES ovarian was > 100 µM throughout.

`N#CC(C#N)=Cc1ccc2c(c1)OC(Cl)O2` (stereo not drawn): the TGI is 44.1 µM in the experiment with HL-60(TB) leukemia; 37.4 µM with SF-295 CNS; 52 µM in the experiment with COLO 205 colon; 68.1 µM with TK-10 renal; 66.4 µM in the experiment on SF-268 CNS; > 100 µM in the experiment on NCI/ADR-RES ovarian.

Consider `O=C(c1ccccc1)c1ccc(COc2ccc(C(c3c(O)c4ccccc4oc3=O)c3c(O)c4ccccc4oc3=O)cc2)cc1`, for which the TGI in the experiment with SF-295 CNS is 44.1 µM; in the experiment on COLO 205 colon, 39.2 µM; in the experiment on TK-10 renal, 32.8 µM; in the experiment on SF-268 CNS, > 100 µM; in the experiment with IGROV1 ovarian, 28.5 µM; with NCI-H460 lung, 48.6 µM. The TGI in the experiment on NCI/ADR-RES ovarian was determined as 40.9 µM.

Turning to `COc1ccc(NC2Oc3cc4c(cc3C(c3cccc(OC)c3OC)C2C)OCO4)cc1` (stereo not drawn), the TGI with HL-60(TB) leukemia was 10.9 µM; in the experiment on SF-295 CNS it was 32.3 µM; in the experiment on COLO 205 colon, 19.2 µM; in the experiment on TK-10 renal it was > 100 µM; in the experiment on BT-549 breast it was > 100 µM; in the experiment with SF-268 CNS, > 100 µM. In addition, the TGI in the experiment on IGROV1 ovarian and in the experiment with NCI-H460 lung was > 100 µM in each case.

For the compound `CCOC(=O)/C(C(=S)Nc1ccccc1)=C(/N)N1CCCC1`, the TGI in the experiment on HL-60(TB) leukemia, in the experiment on SF-295 CNS, with COLO 205 colon, with TK-10 renal, in the experiment with SF-268 CNS and in the experiment on IGROV1 ovarian was > 100 µM throughout. In addition, the TGI in the experiment on NCI-H460 lung and in the experiment on NCI/ADR-RES ovarian was > 100 µM in each case.

Consider `COC(=O)[C@@H]1CN(C(=O)CCc2ccccc2)C(=O)N1C(=O)OCc1ccccc1`, for which the TGI in the experiment on HL-60(TB) leukemia, in the experiment with SF-295 CNS, in the experiment with COLO 205 colon, with TK-10 renal, with SF-268 CNS and in the experiment on IGROV1 ovarian was > 100 µM in each case. Further, the TGI in the experiment on NCI-H460 lung and in the experiment on NCI/ADR-RES ovarian was > 100 µM each time.

Turning to `COc1cc2cc(C(=O)N3CC(CCl)c4ccc(O)cc43)[nH]c2c(OC)c1OC` (stereo not drawn), the TGI in the experiment on SF-295 CNS was 0.00398 µM; in the experiment on COLO 205 colon, 0.0451 µM; in the experiment with TK-10 renal, 22.4 µM; in the experiment on SF-268 CNS it was 0.145 µM.

Consider `COc1cc2c(c(OC)c1OC)C(=O)[C@H](O)[C@H]2NC(N)=O`, for which the TGI with HL-60(TB) leukemia, with SF-295 CNS, in the experiment on COLO 205 colon, in the experiment with TK-10 renal, with SF-268 CNS and in the experiment on IGROV1 ovarian was > 100 µM throughout. Also, the TGI with NCI-H460 lung and with NCI/ADR-RES ovarian was > 100 µM in each case.

Values taken from PubChem BioAssay (NCI).
